Molecular target: ALK2 (Homo sapiens (Human), UniProt Q04771)
Assay: ALK2 inhibition, LanthaScreen Eu Kinase Binding Assay (ThermoFisher Scientific / Life Technologies)
Conditions: read-out: Measured Ki (IC50) Value for Compounds: IC50
Procedure: Biochemical assays to measure the inhibitory effects of the compounds were performed by ThermoFisher Scientific (Life Technologies). ALK2 inhibition was tested using LanthaScreen™ Eu Kinase Binding Assay screening protocol.

Chain of ALK2 (Q04771 21-509): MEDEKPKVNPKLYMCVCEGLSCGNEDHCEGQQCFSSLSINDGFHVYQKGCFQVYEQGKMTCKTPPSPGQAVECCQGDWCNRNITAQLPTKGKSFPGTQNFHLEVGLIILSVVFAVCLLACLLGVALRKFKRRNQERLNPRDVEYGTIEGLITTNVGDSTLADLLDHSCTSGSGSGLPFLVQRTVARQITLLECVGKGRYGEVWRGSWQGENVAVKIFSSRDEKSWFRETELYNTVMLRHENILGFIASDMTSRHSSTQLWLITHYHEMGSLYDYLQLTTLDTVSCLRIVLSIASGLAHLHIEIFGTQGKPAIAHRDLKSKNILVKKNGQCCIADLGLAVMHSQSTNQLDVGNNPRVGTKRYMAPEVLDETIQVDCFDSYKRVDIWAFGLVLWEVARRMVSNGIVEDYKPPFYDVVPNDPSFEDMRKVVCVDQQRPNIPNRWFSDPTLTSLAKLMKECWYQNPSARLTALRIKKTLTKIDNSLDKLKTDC

SMILES	IC50 [nM]
CCCC=Cc1ccc2c(Nc3cn(-c4cc(OC)c(OC)c(OC)c4)cn3)nc(N3CCC[C@H]3CO)nn12 [Compound 79d, (S)-(1-(7-(pent-1-en-1-yl)-4-((1-(3,4,5-trimethoxyphenyl)-1H-imidazol-4-yl)amino)pyrrolo[2,1-f][1,2,4]triazin-2-yl)pyrrolidin-2-yl)methanol]	< 100
COc1cc(-n2cnc(Nc3nc(N4CCC[C@H]4C(N)=O)nc4cc(OC(C)C)ccc34)c2)cc(OC)c1OC [Compound 171a, (S)-1-(7-isopropoxy-4-((1-(3,4,5-trimethoxyphenyl)-1H-imidazol-4-yl)amino)quinazolin-2-yl)pyrrolidine-2-carboxamide]	< 100
c1ccc(C2CCCN2c2nc(Nc3cn(-c4ccccc4)cn3)c3occc3n2)cc1 (stereo not shown) [Compound 40a, N-(1-phenyl-1H-imidazol-4-yl)-2-(2-phenylpyrrolidin-1-yl)furo[3,2-d]pyrimidin-4-amine]	< 100
COc1cc(-n2cnc(Nc3nc(N4CCC[C@H]4CO)nn4c(C5=CCN(C(=O)OC(C)(C)C)CC5)ccc34)c2)cc(OC)c1OC [Compound 98a, (S)-tert-butyl 4-(2-(2-(hydroxymethyl)pyrrolidin-1-yl)-4-(1-(3,4,5-trimethoxyphenyl)-1H-imidazol-4-ylamino)pyrrolo[1,2-f][1,2,4]triazin-7-yl)-5,6-dihydropyridine-1(2H)-carboxylate]	< 100
COc1cc(-n2cnc(Nc3nc(N4CCC[C@H]4CO)c4c(C)nn(C5CCC5)c4n3)c2)cc(OC)c1OC [Compound 442c, (S)-(1-(1-cyclobutyl-3-methyl-6-((1-(3,4,5-trimethoxyphenyl)-1H-imidazol-4-yl)amino)-1H-pyrazolo[3,4-d]pyrimidin-4-yl)pyrrolidin-2-yl)methanol]	< 100
COc1cc(-n2cnc(Nc3nc(N4CCC[C@H]4C(N)=O)nc4c3CCC4)c2)cc(OC)c1OC [Compound 292a, (S)-1-(4-((1-(3,4,5-trimethoxyphenyl)-1H-imidazol-4-yl)amino)-6,7-dihydro-5H-cyclopenta[d]pyrimidin-2-yl)pyrrolidine-2-carboxamide]	< 100
COc1cc(-n2cnc(Nc3nc(N4CCC[C@@H]4CO)nc4cc(Br)ccc34)c2)cc(OC)c1OC [Compound 382a, (R)-(1-(7-bromo-4-((1-(3,4,5-trimethoxyphenyl)-1H-imidazol-4-yl)amino)quinazolin-2-yl)pyrrolidin-2-yl)methanol]	< 100
COc1cc(-n2cnc(Nc3nc(N4CCCC4)c4sccc4n3)c2)cc(OC)c1OC [Compound 207b, 4-(pyrrolidin-1-yl)-N-(1-(3,4,5-trimethoxyphenyl)-1H-imidazol-4-yl)thieno[3,2-d]pyrimidin-2-amine]	< 100
Cc1cc(OC(F)(F)F)cc(-n2cnc(Nc3nc(N4CCC[C@H]4CO)nn4cccc34)c2)c1 [Compound 331b, (S)-(1-(4-((1-(3-methyl-5-(trifluoromethoxy)phenyl)-1H-imidazol-4-yl)amino)pyrrolo[2,1-f][1,2,4]triazin-2-yl)pyrrolidin-2-yl)methanol]	< 100
COc1cc(-n2cnc(Nc3nc(N4CCC[C@H]4C(N)=O)nc4c3cnn4C)c2)cc(OC)c1OC [Compound 337a, (S)-1-(1-methyl-4-((1-(3,4,5-trimethoxyphenyl)-1H-imidazol-4-yl)amino)-1H-pyrazolo[3,4-d]pyrimidin-6-yl)pyrrolidine-2-carboxamide]	< 100
Cc1cc2c(Nc3cn(-c4ccccc4)cn3)nc(N3CCC[C@H]3CO)nc2s1 [Compound 22c, (S)-(1-(6-methyl-4-((1-phenyl-1H-imidazol-4-yl)amino)thieno[2,3-d]pyrimidin-2-yl)pyrrolidin-2-yl)methanol]	< 100
COc1cc(-n2cnc(Nc3nc4c(c(N5CCC[C@H]5CO)n3)CNCC4)c2)cc(OC)c1OC [Compound 181d, (S)-(1-(2-((1-(3,4,5-trimethoxyphenyl)-1H-imidazol-4-yl)amino)-5,6,7,8-tetrahydropyrido[4,3-d]pyrimidin-4-yl)pyrrolidin-2-yl)methanol]	< 100
COc1cc(-n2cnc(Nc3nc4c(c(N5CCC[C@H]5CO)n3)CN(C(=O)OC(C)(C)C)C4)c2)cc(OC)c1OC [Compound 359c, (S)-tert-butyl 4-(2-(hydroxymethyl)pyrrolidin-1-yl)-2-(1-(3,4,5-trimethoxyphenyl)-1H-imidazol-4-ylamino)-5H-pyrrolo[3,4-d]pyrimidine-6(7H)-carboxylate]	< 100
COc1cc(-n2cnc(Nc3nc4c(c(N5[C@H](CO)C[C@H]6C[C@H]65)n3)CCC4)c2)cc(OC)c1OC [Compound 394b, ((1R,3S,5R)-2-(2-((1-(3,4,5-trimethoxyphenyl)-1H-imidazol-4-yl)amino)-6,7-dihydro-5H-cyclopenta[d]pyrimidin-4-yl)-2-azabicyclo[3.1.0]hexan-3-yl)methanol]	< 100
COc1cc(-n2cnc(Nc3ccc4ccccc4n3)c2)cc(OC)c1OC [Compound 179b, N-(1-(3,4,5-trimethoxyphenyl)-1H-imidazol-4-yl)quinolin-2-amine]	< 100
c1ccc(C2CCCN2c2nc(Nc3cn(C4CC4)cn3)c3cccn3n2)cc1 (stereo not shown) [Compound 30a, N-(1-cyclopropyl-1H-imidazol-4-yl)-2-(2-phenylpyrrolidin-1-yl)pyrrolo[2,1-f][1,2,4]triazin-4-amine]	100 to 1000

SMILES	IC50 [nM]
COc1cc(-n2cnc(Nc3nc(N4CCC[C@H]4C(N)=O)nc4ccccc34)c2)cc(OC)c1OC [Compound 130a, (S)-1-(4-((1-(3,4,5-trimethoxyphenyl)-1H-imidazol-4-yl)amino)quinazolin-2-yl)pyrrolidine-2-carboxamide]	< 100
CNC(=O)c1cc(OC)cc(-n2cnc(Nc3nc(N4CCC[C@H]4CO)nn4cccc34)c2)c1 [Compound 427b, (S)-3-(4-((2-(2-(hydroxymethyl)pyrrolidin-1-yl)pyrrolo[2,1-f][1,2,4]triazin-4-yl)amino)-1H-imidazol-1-yl)-5-methoxy-N-methylbenzamide]	< 100
COc1cc(-n2cnc(Nc3nc(-c4cccc(CO)c4)nn4cccc34)c2)cc(OC)c1OC [Compound 134a, (3-(4-((1-(3,4,5-trimethoxyphenyl)-1H-imidazol-4-yl)amino)pyrrolo[2,1-f][1,2,4]triazin-2-yl)phenyl)methanol]	< 100
COc1cc(-n2cnc(Nc3nc(N4CCC[C@H]4CO)c4ccc(C(=O)N5CCCCC5)n4n3)c2)cc(OC)c1OC [Compound 259d, (S)-(4-(2-(hydroxymethyl)pyrrolidin-1-yl)-2-((1-(3,4,5-trimethoxyphenyl)-1H-imidazol-4-yl)amino)pyrrolo[2,1-f][1,2,4]triazin-7-yl)(piperidin-1-yl)methanone]	< 100
N#CC1CC(n2cnc(Nc3nc(N4CCCC4c4ccccn4)nn4cccc34)c2)C1 (stereo not shown) [Compound 59c, 3-(4-((2-(2-(pyridin-2-yl)pyrrolidin-1-yl)pyrrolo[2,1-f][1,2,4]triazin-4-yl)amino)-1H-imidazol-1-yl)cyclobutanecarbonitrile]	100 to 1000
COc1cc(-n2cnc(Nc3nc(N4CCC[C@H]4CO)nc4ncccc34)c2)cc(OC)c1OC [Compound 169c, (S)-(1-(4-((1-(3,4,5-trimethoxyphenyl)-1H-imidazol-4-yl)amino)pyrido[2,3-d]pyrimidin-2-yl)pyrrolidin-2-yl)methanol]	< 100
OC[C@@H]1CCCN1c1nc(Nc2cn(-c3ccc(O)cc3)cn2)c2cccn2n1 [Compound 48c, (S)-4-(4-((2-(2-(hydroxymethyl)pyrrolidin-1-yl)pyrrolo[2,1-f][1,2,4]triazin-4-yl)amino)-1H-imidazol-1-yl)phenol]	< 100
COc1cc(-n2cnc(Nc3nc(N4CCC[C@@H]4C(N)=O)nc4ccoc34)c2)cc(OC)c1OC [Compound 300a, (R)-1-(4-((1-(3,4,5-trimethoxyphenyl)-1H-imidazol-4-yl)amino)furo[3,2-d]pyrimidin-2-yl)pyrrolidine-2-carboxamide]	< 100
OC[C@@H]1CCCN1c1nc(Nc2cn(-c3ccccc3)cn2)c2ccsc2n1 [Compound 31c, (S)-(1-(4-((1-phenyl-1H-imidazol-4-yl)amino)thieno[2,3-d]pyrimidin-2-yl)pyrrolidin-2-yl)methanol]	< 100
COc1cc(-n2cnc(Nc3nc(N4CCC[C@@H]4CO)c4ccccc4n3)c2)cc(OC)c1OC [Compound 327b, (R)-(1-(2-((1-(3,4,5-trimethoxyphenyl)-1H-imidazol-4-yl)amino)quinazolin-4-yl)pyrrolidin-2-yl)methanol]	< 100
Cn1cnc(Nc2nc(N3CCC[C@H]3CO)nn3cccc23)c1 [Compound 6a, (S)-(1-(4-(1-methyl-1H-imidazol-4-ylamino)pyrrolo[1,2-f][1,2,4]triazin-2-yl)pyrrolidin-2-yl)methanol]	100 to 1000
COc1cc(-n2cnc(Nc3nc(N4CCC[C@H]4C(N)=O)nn4c(C(=O)N5CCCCC5)ccc34)c2)cc(OC)c1OC [Compound 126c, (S)-1-(7-(piperidine-1-carbonyl)-4-((1-(3,4,5-trimethoxyphenyl)-1H-imidazol-4-yl)amino)pyrrolo[2,1-f][1,2,4]triazin-2-yl)pyrrolidine-2-carboxamide]	< 100
COc1cc(-n2cnc(Nc3nc(N4CCC[C@H]4CO)nc4c3ncn4C)c2)cc(OC)c1OC [Compound 386c, (S)-(1-(9-methyl-6-((1-(3,4,5-trimethoxyphenyl)-1H-imidazol-4-yl)amino)-9H-purin-2-yl)pyrrolidin-2-yl)methanol]	< 100
c1ccc(C2CCCN2c2nc(Nc3cn(C4CCCCC4)cn3)c3cccn3n2)nc1 (stereo not shown) [Compound 29a, N-(1-cyclohexyl-1H-imidazol-4-yl)-2-(2-(pyridin-2-yl)pyrrolidin-1-yl)pyrrolo[2,1-f][1,2,4]triazin-4-amine]	100 to 1000
COc1cc(-n2cnc(Nc3nc(N4CCC[C@H]4CO)nn4c(CN5CCNCC5)ccc34)c2)cc(OC)c1OC [Compound 122a, (S)-(1-(7-(piperazin-1-ylmethyl)-4-((1-(3,4,5-trimethoxyphenyl)-1H-imidazol-4-yl)amino)pyrrolo[2,1-f][1,2,4]triazin-2-yl)pyrrolidin-2-yl)methanol]	< 100
